Calls of active or inactive are those of the source. The rule behind the calls is not given here.
Legend:
[1] = molecular target: T1, Protein cereblon/Tyrosine-protein phosphatase non-receptor type 1 (Homo sapiens, UniProt P18031+Q96SW2); assay: PROTAC activity at PTP1B/CRBN in insulin treated human HepG2 cells assessed as protein degradation at 625 nM incubated for 48 hrs by Western blot analysis relative to control; type: cell-based
Target sequence in this assay (P18031 whole entry, looked up): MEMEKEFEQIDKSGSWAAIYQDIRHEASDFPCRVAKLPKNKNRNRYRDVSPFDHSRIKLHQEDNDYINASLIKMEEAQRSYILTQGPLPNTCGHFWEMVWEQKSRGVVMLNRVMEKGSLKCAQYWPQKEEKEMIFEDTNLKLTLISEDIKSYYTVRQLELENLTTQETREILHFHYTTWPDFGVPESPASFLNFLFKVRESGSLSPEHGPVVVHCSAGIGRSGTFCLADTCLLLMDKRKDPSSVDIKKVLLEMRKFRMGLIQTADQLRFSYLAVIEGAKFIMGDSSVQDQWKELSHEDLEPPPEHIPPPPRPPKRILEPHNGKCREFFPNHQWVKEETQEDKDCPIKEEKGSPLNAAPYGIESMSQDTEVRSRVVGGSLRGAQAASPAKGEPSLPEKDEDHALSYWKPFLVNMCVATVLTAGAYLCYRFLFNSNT
Target sequence in this assay (Q96SW2 whole entry, looked up): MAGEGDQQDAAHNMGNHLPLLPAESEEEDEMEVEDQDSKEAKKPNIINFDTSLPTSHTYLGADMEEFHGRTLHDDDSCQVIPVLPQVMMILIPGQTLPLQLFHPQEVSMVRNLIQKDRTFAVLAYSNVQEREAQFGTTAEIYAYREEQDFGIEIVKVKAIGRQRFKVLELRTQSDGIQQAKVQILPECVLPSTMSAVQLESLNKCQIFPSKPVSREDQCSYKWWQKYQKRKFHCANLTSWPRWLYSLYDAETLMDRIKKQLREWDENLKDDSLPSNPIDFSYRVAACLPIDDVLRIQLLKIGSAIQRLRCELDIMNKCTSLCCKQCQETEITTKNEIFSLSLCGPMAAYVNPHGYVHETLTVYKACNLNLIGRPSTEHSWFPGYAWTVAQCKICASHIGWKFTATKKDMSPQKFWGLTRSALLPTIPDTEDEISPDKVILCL

[2] = molecular target: T1, Protein cereblon/Tyrosine-protein phosphatase non-receptor type 1; assay: PROTAC activity at PTP1B/CRBN in insulin treated human HepG2 cells assessed as protein degradation at 100 nM incubated for 24 hrs in presence of MG-132 by Western blot analysis; type: cell-based
Target sequence in this assay (P18031 whole entry, looked up): as the sequence (P18031 whole entry, looked up) above
Target sequence in this assay (Q96SW2 whole entry, looked up): as the sequence (Q96SW2 whole entry, looked up) above

[3] = molecular target: T1, Protein cereblon/Tyrosine-protein phosphatase non-receptor type 1; assay: PROTAC activity at PTP1B/CRBN in insulin treated human HepG2 cells assessed as protein degradation at 100 nM incubated for 24 hrs in presence of […] by Western blot analysis; type: cell-based
Target sequence in this assay (P18031 whole entry, looked up): as the sequence (P18031 whole entry, looked up) above
Target sequence in this assay (Q96SW2 whole entry, looked up): as the sequence (Q96SW2 whole entry, looked up) above

[4] = molecular target: T1, Protein cereblon/Tyrosine-protein phosphatase non-receptor type 1; assay: PROTAC activity at PTP1B/CRBN in insulin treated human HepG2 cells assessed as protein degradation at 25 nM incubated for 72 hrs by Western blot analysis relative to control; type: cell-based
Target sequence in this assay (P18031 whole entry, looked up): as the sequence (P18031 whole entry, looked up) above
Target sequence in this assay (Q96SW2 whole entry, looked up): as the sequence (Q96SW2 whole entry, looked up) above

[5] = molecular target: T1, Protein cereblon/Tyrosine-protein phosphatase non-receptor type 1; assay: PROTAC activity at PTP1B/CRBN in insulin treated human HepG2 cells assessed as protein degradation at 50 nM incubated for 48 hrs by Western blot analysis relative to control; type: cell-based
Target sequence in this assay (P18031 whole entry, looked up): as the sequence (P18031 whole entry, looked up) above
Target sequence in this assay (Q96SW2 whole entry, looked up): as the sequence (Q96SW2 whole entry, looked up) above

HepG2 [6] = assay: Hypoglycemic activity in human HepG2 cells assessed as upregulation of Akt phosphorylation at 250 to 500 nM incubated for 24 hrs by Western blot analysis; type: functional, cell-based; details: dose 250-500 nM
[7] = molecular target: T1, Protein cereblon/Tyrosine-protein phosphatase non-receptor type 1; assay: PROTAC activity at PTP1B/CRBN in insulin treated human HepG2 cells assessed as protein degradation at 625 nM incubated for 72 hrs by Western blot analysis relative to control; type: cell-based
Target sequence in this assay (P18031 whole entry, looked up): as the sequence (P18031 whole entry, looked up) above
Target sequence in this assay (Q96SW2 whole entry, looked up): as the sequence (Q96SW2 whole entry, looked up) above

[8] = molecular target: T1, Protein cereblon/Tyrosine-protein phosphatase non-receptor type 1; assay: PROTAC activity at PTP1B/CRBN in insulin treated human HepG2 cells assessed as protein degradation at 5 nM incubated for 48 hrs by Western blot analysis relative to control; type: cell-based
[9] = molecular target: T1, Protein cereblon/Tyrosine-protein phosphatase non-receptor type 1; assay: PROTAC activity at PTP1B/CRBN in insulin treated human HepG2 cells assessed as protein degradation at 1250 nM incubated for 72 hrs by Western blot analysis relative to control; type: cell-based
Mus musculus [10] = assay: Anti-diabetic activity in KM mouse assessed as reduction in blood glucose measured for 0 to 120 mins at 40 mg/kg single dose by oral glucose tolerance test (oGTT) relative to control; type: functional; details: time 0-120 min
Mus musculus [11] = assay: Anti-diabetic activity in KM mouse assessed as reduction in area under the curve of blood glucose measured for 0 to 120 mins at 40 mg/kg single dose by oral glucose tolerance test (oGTT); type: functional; set-up: scale not given: the % may be the effect or the level left; details: time 0-120 min
[12] = molecular target: T1, Protein cereblon/Tyrosine-protein phosphatase non-receptor type 1; assay: PROTAC activity at PTP1B/CRBN in insulin treated human HepG2 cells assessed as protein degradation at 125 nM incubated for 72 hrs by Western blot analysis relative to control; type: cell-based
[13] = molecular target: T1, Protein cereblon/Tyrosine-protein phosphatase non-receptor type 1; assay: PROTAC activity at PTP1B/CRBN in insulin treated human HepG2 cells assessed as protein degradation at 500 nM incubated for 48 hrs by Western blot analysis relative to control; type: cell-based
[14] = molecular target: T1, Protein cereblon/Tyrosine-protein phosphatase non-receptor type 1; assay: PROTAC activity at PTP1B/CRBN in insulin treated human HepG2 cells assessed as protein degradation at 250 to 500 nM incubated for 24 hrs by Western blot analysis; type: cell-based; details: dose 250-500 nM
[15] = molecular target: T1, Protein cereblon/Tyrosine-protein phosphatase non-receptor type 1; assay: PROTAC activity at PTP1B/CRBN in insulin treated human HepG2 cells assessed as protein degradation at 1 nM incubated for 72 hrs by Western blot analysis relative to control; type: cell-based
[16] = molecular target: T1, Protein cereblon/Tyrosine-protein phosphatase non-receptor type 1; assay: PROTAC activity at PTP1B/CRBN in insulin treated human HepG2 cells assessed as protein degradation at 5 nM incubated for 72 hrs by Western blot analysis relative to control; type: cell-based
[17] = molecular target: T1, Protein cereblon/Tyrosine-protein phosphatase non-receptor type 1; assay: PROTAC activity at PTP1B/CRBN in insulin treated human HepG2 cells assessed as protein degradation half life at 500 nM by Western blot analysis; type: cell-based
[18] = molecular target: T1, Protein cereblon/Tyrosine-protein phosphatase non-receptor type 1; assay: PROTAC activity at PTP1B/CRBN in insulin treated human HepG2 cells assessed as protein degradation at 1250 nM incubated for 48 hrs by Western blot analysis relative to control; type: cell-based
[19] = molecular target: T1, Protein cereblon/Tyrosine-protein phosphatase non-receptor type 1; assay: PROTAC activity at PTP1B/CRBN in insulin treated human HepG2 cells assessed as protein degradation incubated for 72 hrs by Western blot analysis; type: cell-based
Mus musculus [20] = assay: Anti-diabetic activity in KM mouse assessed as reduction in area under the curve of blood glucose measured for 0 to 120 mins at 20 mg/kg single dose by oral glucose tolerance test (oGTT); type: functional; set-up: scale not given: the % may be the effect or the level left; details: time 0-120 min
[21] = molecular target: T1, Protein cereblon/Tyrosine-protein phosphatase non-receptor type 1; assay: PROTAC activity at PTP1B/CRBN in insulin treated human HepG2 cells assessed as protein degradation at 5000 nM incubated for 48 hrs by Western blot analysis relative to control; type: cell-based
[22] = molecular target: T1, Protein cereblon/Tyrosine-protein phosphatase non-receptor type 1; assay: PROTAC activity at PTP1B/CRBN in insulin treated human HepG2 cells assessed as protein degradation at 125 nM incubated for 48 hrs by Western blot analysis relative to control; type: cell-based
[23] = molecular target: Protein cereblon/Tyrosine-protein phosphatase non-receptor type 22 (Homo sapiens) (UniProt Q9Y2R2+Q96SW2); assay: PROTAC activity at LYP/CRBN in insulin treated human HepG2 cells assessed as protein degradation at 250 to 500 nM incubated for 24 hrs by Western blot analysis; type: cell-based; details: dose 250-500 nM
Sequence of Protein cereblon/Tyrosine-protein phosphatase non-receptor type 22 (Homo sapiens) (Q96SW2 whole entry, looked up): as above
Sequence of Protein cereblon/Tyrosine-protein phosphatase non-receptor type 22 (Homo sapiens) (Q9Y2R2 whole entry, looked up): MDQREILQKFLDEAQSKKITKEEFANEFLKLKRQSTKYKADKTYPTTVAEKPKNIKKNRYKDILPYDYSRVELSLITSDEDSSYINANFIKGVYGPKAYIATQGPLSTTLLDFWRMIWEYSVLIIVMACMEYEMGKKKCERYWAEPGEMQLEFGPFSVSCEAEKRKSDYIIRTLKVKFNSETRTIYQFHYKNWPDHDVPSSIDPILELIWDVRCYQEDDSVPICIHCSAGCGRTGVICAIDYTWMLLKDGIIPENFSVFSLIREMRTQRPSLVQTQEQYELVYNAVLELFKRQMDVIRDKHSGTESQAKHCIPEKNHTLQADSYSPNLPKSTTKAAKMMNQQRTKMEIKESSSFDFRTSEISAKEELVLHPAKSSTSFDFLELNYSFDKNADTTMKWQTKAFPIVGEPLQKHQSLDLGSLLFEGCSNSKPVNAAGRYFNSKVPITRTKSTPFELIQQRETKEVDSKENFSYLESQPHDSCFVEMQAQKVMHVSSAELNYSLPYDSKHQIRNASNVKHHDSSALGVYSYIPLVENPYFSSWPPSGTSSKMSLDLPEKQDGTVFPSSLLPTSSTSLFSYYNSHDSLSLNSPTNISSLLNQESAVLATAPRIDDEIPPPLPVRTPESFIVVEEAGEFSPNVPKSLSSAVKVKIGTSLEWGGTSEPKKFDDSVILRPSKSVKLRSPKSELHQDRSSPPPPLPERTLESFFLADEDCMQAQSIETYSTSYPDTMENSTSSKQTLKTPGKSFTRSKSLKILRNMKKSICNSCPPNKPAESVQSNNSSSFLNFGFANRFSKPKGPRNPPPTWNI

[24] = molecular target: T1, Protein cereblon/Tyrosine-protein phosphatase non-receptor type 1; assay: PROTAC activity at PTP1B/CRBN in insulin treated human HepG2 cells assessed as protein degradation at 100 nM incubated for 24 hrs in presence of pomalidomide by Western blot analysis; type: cell-based
[25] = molecular target: T1, Protein cereblon/Tyrosine-protein phosphatase non-receptor type 1; assay: PROTAC activity at PTP1B/CRBN in insulin treated human HepG2 cells assessed as protein degradation incubated for 48 hrs by Western blot analysis; type: cell-based
[26] = molecular target: T1, Protein cereblon/Tyrosine-protein phosphatase non-receptor type 1; assay: PROTAC activity at PTP1B/CRBN in insulin treated human HepG2 cells assessed as protein degradation at 25 nM incubated for 48 hrs by Western blot analysis relative to control; type: cell-based
[27] = molecular target: T1, Protein cereblon/Tyrosine-protein phosphatase non-receptor type 1; assay: PROTAC activity at PTP1B/CRBN in insulin treated human HepG2 cells assessed as protein degradation at 1 nM incubated for 48 hrs by Western blot analysis relative to control; type: cell-based
[28] = molecular target: Protein cereblon/Tyrosine-protein phosphatase non-receptor type 11 (Homo sapiens) (UniProt Q06124+Q96SW2); assay: PROTAC activity at SHP2/CRBN in insulin treated human HepG2 cells assessed as protein degradation at 250 to 500 nM incubated for 24 hrs by Western blot analysis; type: cell-based; details: dose 250-500 nM
Sequence of Protein cereblon/Tyrosine-protein phosphatase non-receptor type 11 (Homo sapiens) (Q06124 2-593 limits assumed): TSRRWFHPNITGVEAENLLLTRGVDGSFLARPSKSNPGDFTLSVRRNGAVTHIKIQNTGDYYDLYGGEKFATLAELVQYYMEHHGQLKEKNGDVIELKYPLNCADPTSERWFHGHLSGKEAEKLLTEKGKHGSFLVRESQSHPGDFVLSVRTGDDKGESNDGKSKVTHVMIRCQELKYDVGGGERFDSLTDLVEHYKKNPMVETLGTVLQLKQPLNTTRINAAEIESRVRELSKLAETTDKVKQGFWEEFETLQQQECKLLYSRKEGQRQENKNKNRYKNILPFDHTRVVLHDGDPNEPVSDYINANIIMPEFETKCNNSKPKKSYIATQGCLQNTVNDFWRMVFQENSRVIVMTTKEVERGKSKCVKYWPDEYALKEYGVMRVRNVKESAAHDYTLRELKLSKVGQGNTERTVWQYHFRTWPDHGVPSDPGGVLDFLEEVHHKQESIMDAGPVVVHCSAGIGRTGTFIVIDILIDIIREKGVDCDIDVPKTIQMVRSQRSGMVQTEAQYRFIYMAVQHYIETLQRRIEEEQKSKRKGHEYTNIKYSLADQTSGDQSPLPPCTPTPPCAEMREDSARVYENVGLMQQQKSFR
Sequence of Protein cereblon/Tyrosine-protein phosphatase non-receptor type 11 (Homo sapiens) (Q96SW2 whole entry partner): as the sequence (Q96SW2 whole entry, looked up) above

[29] = molecular target: Protein cereblon/Tyrosine-protein phosphatase non-receptor type 6 (Homo sapiens) (UniProt P29350+Q96SW2); assay: PROTAC activity at SHP1/CRBN in insulin treated human HepG2 cells assessed as protein degradation at 250 to 500 nM incubated for 24 hrs by Western blot analysis; type: cell-based; details: dose 250-500 nM
Sequence of Protein cereblon/Tyrosine-protein phosphatase non-receptor type 6 (Homo sapiens) (P29350 whole entry, looked up): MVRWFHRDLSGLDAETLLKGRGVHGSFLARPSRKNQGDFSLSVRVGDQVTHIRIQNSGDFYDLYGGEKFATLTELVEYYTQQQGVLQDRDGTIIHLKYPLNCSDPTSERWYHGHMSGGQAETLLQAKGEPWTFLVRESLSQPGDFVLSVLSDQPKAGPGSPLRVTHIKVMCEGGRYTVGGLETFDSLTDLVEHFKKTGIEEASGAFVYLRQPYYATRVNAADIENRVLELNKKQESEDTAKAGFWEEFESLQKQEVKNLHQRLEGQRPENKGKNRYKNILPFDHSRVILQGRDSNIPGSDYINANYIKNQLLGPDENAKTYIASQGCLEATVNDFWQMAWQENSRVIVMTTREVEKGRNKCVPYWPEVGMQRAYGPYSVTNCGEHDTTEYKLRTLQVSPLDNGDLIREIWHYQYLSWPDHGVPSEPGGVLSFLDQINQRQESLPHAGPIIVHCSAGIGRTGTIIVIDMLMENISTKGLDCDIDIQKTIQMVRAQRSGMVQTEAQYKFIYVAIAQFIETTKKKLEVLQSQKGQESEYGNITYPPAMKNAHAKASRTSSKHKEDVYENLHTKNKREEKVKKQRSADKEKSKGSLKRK
Sequence of Protein cereblon/Tyrosine-protein phosphatase non-receptor type 6 (Homo sapiens) (Q96SW2 whole entry, looked up): as the sequence (Q96SW2 whole entry, looked up) above

[30] = molecular target: Protein cereblon/Receptor-type tyrosine-protein phosphatase C (Homo sapiens) (UniProt P08575+Q96SW2); assay: PROTAC activity at CD45/CRBN in insulin treated human HepG2 cells assessed as protein degradation at 250 to 500 nM incubated for 24 hrs by Western blot analysis; type: cell-based; details: dose 250-500 nM
HepG2 [31] = assay: Hypoglycemic activity in human HepG2 cells assessed as upregulation of IRS-1 expression at 250 to 500 nM incubated for 24 hrs by Western blot analysis; type: functional, cell-based; details: dose 250-500 nM
HepG2 [32] = assay: Hypoglycemic activity in human HepG2 cells assessed as upregulation of PI3K expression at 250 to 500 nM incubated for 24 hrs by Western blot analysis; type: functional, cell-based; details: dose 250-500 nM
Mus musculus [33] = assay: Anti-diabetic activity in KM mouse assessed as reduction in area under the curve of blood glucose measured for 0 to 120 mins at 10 mg/kg single dose by oral glucose tolerance test (oGTT); type: functional; set-up: scale not given: the % may be the effect or the level left; details: time 0-120 min

**Q.** Which results are given for `CC1(C)CC[C@]2(C(=O)NCCCCCCOCCOCCOCCOCCCCCC(=O)Nc3cccc4c3C(=O)N(C3CCC(=O)NC3=O)C4=O)CC[C@]3(C)C(=CC[C@@H]4[C@@]5(C)CC[C@H](O)C(C)(C)[C@@H]5CC[C@]43C)[C@@H]2C1` (stereo not given in full)?
**A.** Activity [1]: 43%; Activity [2]: inactive; Activity [3]: inactive; Activity [4]: 58%; Activity [5]: 20%; Activity (HepG2 [6]): Active; Activity [7]: 43%; Activity [8]: 51%; Activity [9]: 48%; inhibition in vivo at 40 mg/kg (Mus musculus [10]): 29%; Activity (Mus musculus [11]): 21.8%; Activity [12]: 58%; Activity [13]: 27%; Activity [14]: 100%; Activity [15]: < 5%; Activity [16]: 40%; T1/2 [17]: 4 h; Activity [18]: 71%; Activity [19]: Dose-Dependent Effect; DC50 [19]: 50 nM; Activity (Mus musculus [20]): 14.8%; Activity [21]: 20%; Activity [22]: 46%; Activity [23]: inactive; Activity [24]: Active; Activity [25]: Dose-Dependent Effect; DC50 [25]: 200 nM; Activity [26]: 51%; Activity [27]: 8%; Activity [28]: inactive; Activity [29]: inactive; Activity [30]: inactive; Activity (HepG2 [31]): Active; Activity (HepG2 [32]): Active; Activity (Mus musculus [33]): 8.6%

— ChEMBL document CHEMBL5543175, “Discovery of Selective Proteolysis-Targeting Chimera Degraders Targeting PTP1B as Long-Term Hypoglycemic Agents” (J Med Chem, 2024)
